From patent US11197811B2, “Teeth whitening methods, visually perceptible signals and compositions therefor” (Colgate-Palmolive Company, priority 2012, dated 2021)
Blank lines part the entries; values can stand above or below the molecule they belong to.

Legend:
[1] = Clarity of gel phase by UV/VIS absorbance; type: physicochemical; conditions: original oral gel, 0.5% (w/w) zinc level; for Absorbance: 610 nm, DI water blank
Method: Four 500.0 g gel phase batches which contain NaF (control), ZLC, ZnCl2 and ZnO as active ingredient are formulated with the ingredients shown in Table 8. The clarity of samples with different actives is compared, and the precipitation characteristic of ZLC gel phase by dilution is evaluated. The concentration of zinc ions in ZLC solution is 25300 ppm obtained by ICP, which in terms gives approximately 17% weight of ZLC actives in the solution. Zinc ion concentration in the following batches are all prepared at 0.5% (w/w) zinc level.
(§1) Lambda 25 UV/VIS Spectrometer (PerkinElmer) is used to obtain absorbance information for all samples in order to compare the clarity of gel phase between different actives. Absorbance is a logarithmic measure of the amount of light that is absorbed when passing through a substance. Since the particles in the gel absorb light, the more particles existing in solution, the more light absorbed by the gel. Thus, a small number of absorbance of a gel indicates a higher clarity. The absorbance is corrected by using deionized (DI) water as the blank solution under the light source wavelength of 610 nm.

pH of gel phase batches = type: physicochemical; conditions: original oral gel batch
[2] = Dilution experiment of gel phase batches (absorbance); type: physicochemical; conditions: for Absorbance, 2 fold dilution: gel phase batch diluted 2 fold; for Absorbance, 4 fold dilution: gel phase batch diluted 4 fold; for Absorbance, 8 fold dilution: gel phase batch diluted 8 fold; for Absorbance, 16 fold dilution: gel phase batch diluted 16 fold; for Absorbance, 32 fold dilution: gel phase batch diluted 32 fold
From the text: as §1
(§2) Dilution experiment: All original gel phase batch are diluted into 2 fold, 4 fold, 8 fold, 16 fold and 32 fold. […] This observation confirms the formation of precipitate when ZLC gel is being diluted by water. The pHs of 2 fold, 4 fold, 8 fold, 16 fold, and 32 fold diluted ZLC gel solution are 7.71, 7.91, 8.03, 8.12, and 8.14, respectively.

[3] = Dilution of neat ZLC solution, flocculation/precipitation monitored; type: physicochemical; conditions: 37° C.
Method: Various dilutions of ZLC are prepared to evaluate its efficiency in producing visible precipitates and/or flocculation, which can be delivered onto a dental surface (dentine and/or enamel) for whitening benefits.
(§3) A neat solution of ZLC is prepared by 1), reacting 0.5 mole of ZnO powder with 1 mole of lysine HCl in 1 liter of water at room temperature for about 2 hours, and 2) collecting the supernatant through centrifugation followed by filtration using a 0.45 micron membrane. The neat solution has a zinc concentration of 2.39% by weight, and a pH of about 7.03.
(§4) Dilution experiment is conducted by mixing the neat solution with deionized water. The neat solution is diluted by 2×, 4×, 6×, 7×, 8×, 10×, 12×, 16×, 20×, 24×, 28×, and 32×, corresponding to initial zinc concentrations of 1.20%, 0.598%, 0.398%, 0.341%, 0.299%, 0.239%, 0.199%, 0.149%, 0.120%, 0.0996%, 0.0854%, 0.0747%, by weight, respectively. The diluted samples are kept at 37° C., and the rates at which flocculation/precipitation occurred are monitored.

[4] = Repeated 10 minute treatments of dentine section, confocal imaging; set-up: species or system human; conditions: 10 minutes at 37° C.; for surface deposition on dentine: 0.0747% zinc
Method: (§5) The deposition/occlusion assay is conducted using human dentine slices and the neat solution of Example 3. The dentine slices are prepared by cutting human tooth into thin dentine sections of about 800 microns in thickness, designating a test side, sanding said test side using a sandpaper of about 600 grit, polishing said test side using a Buehler polishing cloth and 5 micron Buehler aluminum oxide, acid-etching said dentine section in 1% (by weight) citric acid solution for about 20 seconds, sonicating said dentine section for 10 minutes, and storing said dentine section in phosphate buffered saline (PBS, pH 7.4, Gibco Cat. No. 10010).
A new dentine sections, as prepared following the procedure in Example 4, is repeatedly treated with ZLC dilutions with initial zinc concentration of 0.0747% by weight. […] The dentine section is examined under the confocal microscope after each treatment.

[5] = Deposition/occlusion assay, confocal imaging; set-up: species or system human; conditions: 0.149% zinc, 1 hour at 37° C.
Method: as §5
(§6) For treatment, the neat solution is diluted 16-fold with water, yielding a treatment solution with initial zinc concentration of about 0.149% by weight. The dentine section is immersed in the treatment solution for 1 hour at 37° C. The treated dentine section is then removed from the treatment solution, and rinsed 4 times, each time with 1 mL of PBS. The dentine section is then dried using a paper-based tissue and examined under confocal microscope in both XYZ and XYZ modes. Subsequent treatments are conducted in the same manner.
Progressive deposition and occlusion can be observed via confocal imaging. […] The surface deposits can be 10 microns or more in thickness. […] The surface deposits can be 25 microns or more in thickness.

[6] = pH of neat and final diluted ZLC solutions; type: physicochemical
Method: as §3, §4
pH values of final diluted samples are suitable for oral care applications. […] These pH values are well within the range of 5.5 to 10, which defines the suitable range for oral care formulations.

[7] = pH of diluted ZLC gel solution; type: physicochemical
Method: as §2

[8] = Spectrophotometric analysis of whitening (CIELAB color reading); set-up: species or system human; conditions: dentine section of Example 4 after third treatment
Method: as §6
Spectrophotometric analysis proves the whitening efficacy of the ZLC treatment. After the third treatment, the dentine section of Example 4 is dried and examined under a Spectroshade™ spectrophotometer (Handy Dental Type 71,3000). The treated dentinal area is included and the enamel rim is excluded from the examination and subsequent data processing. The CIELAB color reading is L*=86.6, a*=−1.7, and b*=1.5. A similarly prepared dentine section without treatment yielded a reading of L*=72.5, a*=−1.9, and b*=10.3. It is commonly understood that, by definition, L*=0 means black and L*=100 indicates diffuse white, negative a* value indicates green while positive values indicate magenta, and negative b* values indicate blue and positive values indicate yellow.

Absorbance [1]: 2.4626 | pH (pH of gel phase batches): 8.30 | Absorbance, 2 fold dilution [2]: 2.4630 | Absorbance, 4 fold dilution [2]: 2.5340 | Absorbance, 8 fold dilution [2]: 2.1883 | Absorbance, 16 fold dilution [2]: 1.8638 | Absorbance, 32 fold dilution [2]: 1.0492
Molecule: [O-2].[Zn+2] [ZnO]
appearance of gel phase [1]: not dissolved and is suspended in gel phase

appearance of gel phase [1]: forms a homogenous solution | Absorbance [1]: 0.1765 | time to some visible flocculation from mixing with water ([3]; initial zinc concentrations 0.149% and 0.199%): ≤ 30 min | flocculation observed ([3]; one and a half hours after mixing, initial zinc between 0.0747% and 0.239%): visible flocculation | flocculation observed ([3]; one hour from mixing, initial zinc between 0.0854% and 0.239%): visible flocculation | relative amount of precipitates ([3]; total of 19 hours, initial zinc between 0.0747% and 0.239%): the most precipitates | flocculation observed ([3]; two hours after mixing, initial zinc 0.299%): presence of flocculation | precipitation by naked eyes during treatment ([4]; initial zinc 0.0747%): no precipitation | pH (pH of gel phase batches): 7.37 | final pH value of diluted sample ([6]; initial zinc concentration 0.0747%): 7.99 | final pH value of diluted sample ([6]; initial zinc concentration 0.0854%): 8.13 | final pH value of diluted sample ([6]; initial zinc concentration 0.0996%): 8.11 | final pH value of diluted sample ([6]; initial zinc concentration 0.120%): 7.97 | final pH value of diluted sample ([6]; initial zinc concentration 0.149%): 7.99 | final pH value of diluted sample ([6]; initial zinc concentration 0.199 wt %): 6.80 | final pH value of diluted sample ([6]; initial zinc concentration 0.239%): 6.70 | pH of neat solution ([6]; neat solution, zinc concentration 2.39% by weight): about 7.03 | pH of diluted ZLC gel solution ([7]; 2 fold diluted): 7.71 | pH of diluted ZLC gel solution ([7]; 4 fold diluted): 7.91 | pH of diluted ZLC gel solution ([7]; 8 fold diluted): 8.03 | pH of diluted ZLC gel solution ([7]; 16 fold diluted): 8.12 | pH of diluted ZLC gel solution ([7]; 32 fold diluted): 8.14 | Absorbance, 2 fold dilution [2]: 0.1436 | Absorbance, 4 fold dilution [2]: 0.1887 | Absorbance, 8 fold dilution [2]: 0.1860 | Absorbance, 16 fold dilution [2]: 0.1336 | Absorbance, 32 fold dilution [2]: 0.2998
Molecule: [Zn(C6H14N2O2)2Cl]^+Cl^− [ZLC]
flocculation and/or precipitation observed ([3]; total of 19 hours, all samples except initial zinc 1.20%): flocculation and/or precipitation can be observed | surface deposition on dentine ([4]; after 4 consecutive treatments): significant surface deposition | surface deposition on dentine ([4]; after 12 consecutive treatments): complete surface coverage | deposition and occlusion on dentine surface ([5]; first treatment): noticeable deposition | deposition and occlusion on dentine surface ([5]; second treatment): complete surface coverage, including blocking of substantially all tubule openings | thickness of surface deposits ([5]; second treatment): ≥ 10 microns | deposition and occlusion on dentine surface ([5]; third treatment): complete surface coverage and complete blocking of tubule openings | thickness of surface deposits ([5]; third treatment): ≥ 25 microns | CIELAB color reading L* ([8]; untreated section L*=72.5): 86.6 | CIELAB color reading a* ([8]; untreated section a*=−1.9): −1.7 | CIELAB color reading b* ([8]; untreated section b*=10.3): 1.5

appearance of gel phase [1]: appears cloudy | Absorbance [1]: 0.9204 | pH (pH of gel phase batches): 5.25 | Absorbance, 2 fold dilution [2]: 0.7315 | Absorbance, 4 fold dilution [2]: 0.3700 | Absorbance, 8 fold dilution [2]: 0.1701 | Absorbance, 16 fold dilution [2]: 0.0570 | Absorbance, 32 fold dilution [2]: 0.0280
Molecule: [Cl-].[Cl-].[Zn+2] [ZnCl2]

Absorbance [1]: 0.0344 | pH (pH of gel phase batches): 7.63 | Absorbance, 2 fold dilution [2]: 0.0106 | Absorbance, 4 fold dilution [2]: 0.0104 | Absorbance, 8 fold dilution [2]: 0.0107 | Absorbance, 16 fold dilution [2]: 0.0075 | Absorbance, 32 fold dilution [2]: 0.0137
Molecule: [F-].[Na+] [NaF]
